Results: patent US20250352539A1, “COMBINATION THERAPY FOR TREATING CANCER” (AstraZeneca AB, priority 2022, published 2025)

What was measured:
Assay type in all cases: cell-based
NCI-H1573 = test: 10-day Cell Titre Glo combination screen; conditions: Homo sapiens, NCI-H1573, 240 h, NCI-H1573 lung; monotherapy; read-out: mono AC50
From the text: (§1) The Highest Single Agent (HSA) model is used to determine a combination's synergy score (and is based simply on the intuition that if a combination's effect exceeds the effect level of each of its constituents, there must be some combination interaction). Mathematically, the HSA model describes simple superposition of the single agent curves:
(§2) where CX,Y are the concentrations of the X and Y compound, and IX and IY are inhibitions of the single agents at CX,Y. It is also useful to calculate a volume score (HSA Volume) between the data and the HSA surface to characterise the overall strength of combination effects. Empirically derived combination matrices are compared to their respective HSA additivity models constructed from experimentally collected single agent dose response curves. Summation of this excess additivity across the dose response matrix is referred to HSA Volume.
(§3) Potency shifting can also be scored using combination index (CI). For a chosen iso-effect level (ICut), CI is calculated as: […]
(§4) where (CX/ECX) for a particular data point is the ratio of the X compound's measured concentration to its effective concentration at the chosen effect level. The CI is a rough estimate of how much drug was needed in combination relative to the single agent doses required to achieve the chosen effect level. CI values in the range of 0.5-0.7 are typical for in vitro measurements of current clinical combinations. The CI error (σCI) is calculated using standard error propagation through the CI calculation based on the isobologram errors.
(§5) This combination screen was a 10-day assay using Cell Titre Glo as the readout for viability.
(§6) The assay was performed in 384 well plates, with 1 cell line and 4 drug-drug combinations per plate dosed in a 6×6 matrix. A day zero reading was measured to determine growth inhibition. GenedataScreener was used to input the raw values for every well, and the software was programmed to normalise the values to the day zero and DMSO control values.
(§7) The CellTiter-Glo® Luminescent Cell Viability Assay is a homogeneous method to determine the number of viable cells in culture based on quantitation of the ATP present, which signals the presence of metabolically active cells. It relies on the properties of a proprietary thermostable luciferase (Ultra-Glo™ Recombinant Luciferase), which generates a stable “glow-type” luminescent signal and improves performance across a wide range of assay conditions.
(§8) The following information was reported: Synergy scores (HSA); combination index values; AC50 (half-maximal activity concentration) monotherapy values.

NCI-H2009 = test: 10-day Cell Titre Glo combination screen; conditions: Homo sapiens; NCI-H2009 lung; monotherapy; read-out: mono AC50
From the text: as §1, §2, §3, §4, §5, §6, §7, §8

NCI-H322 = test: 10-day Cell Titre Glo combination screen; conditions: NCI-H322, NCI-H322 lung; monotherapy; read-out: mono AC50
From the text: as §1, §2, §3, §4, §5, §6, §7, §8

DMS53 = test: 10-day Cell Titre Glo combination screen; conditions: Homo sapiens, DMS-53; DMS53 lung; monotherapy; read-out: mono AC50
From the text: as §1, §2, §3, §4, §5, §6, §7, §8

PC-9 = test: 10-day Cell Titre Glo combination screen; conditions: Homo sapiens; PC-9 lung; monotherapy; read-out: mono AC50
From the text: as §1, §2, §3, §4, §5, §6, §7, §8

NCI-H1650 = test: 10-day Cell Titre Glo combination screen; conditions: Homo sapiens, NCI-H1650, NCI-H1650 lung; monotherapy; read-out: mono AC50
From the text: as §1, §2, §3, §4, §5, §6, §7, §8

HCC15 = test: 10-day Cell Titre Glo combination screen; conditions: HCC15 lung; monotherapy; read-out: mono AC50
From the text: as §1, §2, §3, §4, §5, §6, §7, §8

NCI-H23 = test: 10-day Cell Titre Glo combination screen; conditions: Homo sapiens; NCI-H23 lung; monotherapy; read-out: mono AC50
From the text: as §1, §2, §3, §4, §5, §6, §7, §8

MCF7 T52 = test: 10-day Cell Titre Glo combination screen; conditions: Homo sapiens; MCF7 T52 breast; monotherapy; read-out: mono AC50
From the text: as §1, §2, §3, §4, §5, §6, §7, §8

NCI-H1666 = test: 10-day Cell Titre Glo combination screen; conditions: Homo sapiens; NCI-H1666 lung; monotherapy; read-out: mono AC50
From the text: as §1, §2, §3, §4, §5, §6, §7, §8

NCI-H1792 = test: 10-day Cell Titre Glo combination screen; conditions: Homo sapiens; NCI-H1792 lung; monotherapy; read-out: mono AC50
From the text: as §1, §2, §3, §4, §5, §6, §7, §8

HCC1569 = test: 10-day Cell Titre Glo combination screen; conditions: Homo sapiens; HCC1569 breast; monotherapy; read-out: mono AC50
From the text: as §1, §2, §3, §4, §5, §6, §7, §8

DU4475 = test: 10-day Cell Titre Glo combination screen; conditions: Homo sapiens, DU-4475; DU4475 breast; monotherapy; read-out: mono AC50
From the text: as §1, §2, §3, §4, §5, §6, §7, §8

HCC1395 = test: 10-day Cell Titre Glo combination screen; conditions: Homo sapiens; HCC1395 breast; monotherapy; read-out: mono AC50
From the text: as §1, §2, §3, §4, §5, §6, §7, §8

[1] = tested on: SUM149PT 53BP1 KO cell pools; test: Clonogenic proliferation assay (14 days, SRB)
Procedure: (§9) Parental BRCA1 mutant SUM149PT breast cancer cell line (Elstrodt 2006) were obtained from AstraZeneca Cell Bank at Alderley Park, Macclesfield. Cells were routinely grown in Ham's F12 media containing 5% foetal calf serum, 1% glutamine (2 mM), 500 ng/ml hydrocortisone and 5% insulin. SUM149PT 53BP1 WT (CNTR) and 53BP1 null (KO) cell pools were generated by CRISPR-Cas9 technology. Short guide (sg) RNA targeting TP53BP1 on exon 10 (GAGTAGATCGGAAAGCATC) and a non-targeting CNTR guide (GAGTAGATCGGAAAGCATC) were designed and cloned into a lentiviral vector containing a mClover3 cassette for green fluorescence signal and hygromycin cassette for selection (pKLV2-U6gRNA (Bbsl)-EF1a-mClover3-T2A-HygR-W). Lentiviruses were generated from both KO and CNTR (sg) RNA and Cas9 (pKLVEF1a-Cas9Bsd-W) plasmids and parental cells were transduced first with Cas9 lentiviruses followed by blasticidin selection and then with KO and CNTR lentiviruses followed by hygromycin selection. Loss of 53BP1 was verified by analysing 53BP1 protein expression from whole cell lysates by western blotting (Novus, NB100-304, 1:1000 dilution).
(§10) Cells were seeded onto 6-well plates, three replicates per cell line, and 24 hours later the cells were dosed with AZD6738/AZD5305. For monotherapies the cells were dosed with a 6-point concentration response of AZD6738 (0 to 0.64 μM) or AZD5305 (0 to 1 μM). For combination treatments single dose of AZD5305 (10 nM) was used with a 5-point concentration response of AZD6738 (0 to 0.64 μM) for 53BP1 KO cells. Cells were grown for 14 days for colony formation without media changes. Cells were fixed with 10% TCA (Tricloroacetic acid). 14 days after dosing any formed colonies were stained with 0.057% SRB (sulforhodamine B acid), imaged with GelCount™ (Oxford OPTRONIX) at 600 dpi resolution and the stained colony growth intensity was measured using plate reader with OD @[…]. Dose response curves were generated and IC50 concentrations were calculated using GraphPad PRISM software.

[2] = tested on: SUM149PT 53BP1 WT (CNTR) cells; test: Clonogenic proliferation assay (14 days, SRB); conditions: Homo sapiens; SUM149PT 53BP1 WT (CNTR); monotherapy; read-out: IC50, clonogenic growth
Procedure: as §9, §10

| SMILES | AC50 (NCI-H1573) [nM] | AC50 (NCI-H2009) [nM] | AC50 (NCI-H322) [nM] | AC50 (DMS53) [nM] | AC50 (PC-9) [nM] | AC50 (NCI-H1650) [nM] | AC50 (HCC15) [nM] | AC50 (NCI-H23) [nM] | AC50 (MCF7 T52) [nM] | AC50 (NCI-H1666) [nM] | AC50 (NCI-H1792) [nM] | AC50 (HCC1569) [nM] | AC50 (DU4475) [nM] | AC50 (HCC1395) [nM] | growth inhibition as monotherapy ([1]; 10 nM, cell pool not given) | sensitivity, clonogenic growth ([1]; SUM149PT 53BP1 KO, monotherapy) | IC50 [2] [nM] |
| --- | --- | --- | --- | --- | --- | --- | --- | --- | --- | --- | --- | --- | --- | --- | --- | --- | --- |
| CCc1cc2ccc(CN3CCN(c4ncc(C)n4C)CC3)cc2[nH]c1=O [AZ14114554, 7-((4-(1,5-dimethyl-1H-imidazol-2-yl)piperazin-1-yl)methyl)-3-ethylquinolin-2 (1H)-one] | 19.6 | 105 | 1.23 | 62.2 | 97100 | 63.2 | – | – | – | – | – | – | – | – | – | – | – |
| CCc1cc2ncc(CN3CCN(c4ccc(C(=O)NC)nc4)CC3)cc2[nH]c1=O [AZD5305, 5-{4-[(7-ethyl-6-oxo-5,6-dihydro-1,5-naphthyridin-3-yl)methyl]piperazin-1-yl}-N-methylpyridine-2-carboxamide] | 47.7 | – | – | – | – | – | 7.7 | 4.13 | 41.8 | 9.36 | 24.5 | 22100 | 120 | 5.73 | does not show growth inhibition | completely resistant | ~6 |
